Measured values as given in ChEMBL document CHEMBL3988442, “University of Dundee, Small-Polar-MMV Screening Library” (2021).
pIC50: −log10 of the molar value.

Molecular target: ClpP1P2 (Mycobacterium tuberculosis (strain ATCC 25618 / H37Rv), UniProt P9WPC3+P9WPC5)
Assay: in vitro assay to detect presence of AMC directly proportional to the activity of ClpP1P2. GHDDI collaboration.
Format: functional

Sequence of ClpP1P2 (P9WPC5 whole entry): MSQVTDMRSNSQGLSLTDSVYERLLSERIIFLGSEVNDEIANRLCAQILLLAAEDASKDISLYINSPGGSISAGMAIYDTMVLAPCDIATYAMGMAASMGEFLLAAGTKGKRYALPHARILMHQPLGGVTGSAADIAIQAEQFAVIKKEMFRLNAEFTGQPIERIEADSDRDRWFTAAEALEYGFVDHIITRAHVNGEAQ
Sequence of ClpP1P2 (P9WPC3 whole entry): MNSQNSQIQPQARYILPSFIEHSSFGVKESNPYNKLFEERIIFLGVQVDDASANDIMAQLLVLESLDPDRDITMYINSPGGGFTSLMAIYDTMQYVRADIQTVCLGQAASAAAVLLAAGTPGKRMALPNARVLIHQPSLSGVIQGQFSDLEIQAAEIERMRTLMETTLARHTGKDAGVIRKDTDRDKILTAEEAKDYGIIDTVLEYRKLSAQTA

## CC1CN(CC(=O)NCc2ccccn2)CCN1Cc1nccn1C (stereo not drawn)
  pIC50: < 4.00

## CC(C)c1ncc(-c2cc(C3CCC3)nc(N)c2C#N)cn1
  pIC50: < 4.00

## CC(C)CNC(=O)c1cn(-c2ccccn2)c(=O)c2ccccc12
  pIC50: < 4.00

## Nc1nccnc1C(=O)NCCCNc1ccc(C(F)(F)F)cn1
  pIC50: < 4.00

## O=C1CCCN1Cc1nnc2n1CCCN(C(=O)c1ccco1)C2
  pIC50: < 4.00

## Cn1ccnc1CN1CCN(CC(O)c2cc(F)ccc2F)CC1 (stereo not drawn)
  pIC50: < 4.00

## Cn1c(CN2CCCC(Cn3cncn3)C2)nc2ccccc21 (stereo not drawn)
  pIC50: < 4.00

## CC(=O)N1CCCCCC1C1CCN(c2ncccc2C#N)CC1 (stereo not drawn)
  pIC50: < 4.00

## N#Cc1cc2c(=O)n(CC(O)Cc3ccccc3)ccc2[nH]c1=O (stereo not drawn)
  pIC50: < 4.00

## CCOc1ccc2[nH]c(=O)c(CN3CCN(S(N)(=O)=O)CC3)cc2c1
  pIC50: < 4.00

## CC(C)C1CN(c2cccc(C#N)n2)CCCN1CC1CC1 (stereo not drawn)
  pIC50: < 4.00

## CNc1cnc(CC2COCCN(CCOc3ccccc3)C2)cn1 (stereo not drawn)
  pIC50: < 4.00

## COc1cc2c(cc1-c1nc3c(cnn3C(C)C)[nH]1)OCO2
  pIC50: < 4.00

## COc1ccccc1-c1nc(C(=O)N(C)C)n2ccncc12
  pIC50: < 4.00

## Cc1cc(C)n(CC2CN(c3cnc4ccccc4n3)CCO2)n1 (stereo not drawn)
  pIC50: < 4.00

## CCOc1ccc2[nH]c(=O)c(CN3CCC(n4cnnc4)CC3)cc2c1
  pIC50: < 4.00

## CN1CCC(NC(=O)c2cc(Br)cc(Cl)c2O)C1=O (stereo not drawn)
  pIC50: < 4.00

## CS(=O)(=O)N1CCCCCC1C1CCN(c2ncccc2C#N)CC1 (stereo not drawn)
  pIC50: < 4.00

## CCn1nc2c(cc1=O)CN(Cc1nc(C)c(C)o1)CC2
  pIC50: < 4.00

## CC1CCN(C(=O)C2CCN(c3ccc(Cl)cc3C#N)CC2)CC1
  pIC50: < 4.00

## O=C(c1c2c(N3CCCC3)ncnc2n2ccccc12)N1CCCC1
  pIC50: < 4.00

## Cc1nc(-c2ccsc2)ccc1C(=O)NCC(C)N1CCOCC1 (stereo not drawn)
  pIC50: < 4.00

## COCCN1CC(C(=O)NCc2cccnc2-n2cccn2)CC1=O (stereo not drawn)
  pIC50: < 4.00

## Cc1ncc(CN2CCc3nc4cc(C(C)(C)C)nn4c(O)c3C2)n1C
  pIC50: < 4.00

## CNc1cncc(C2CCCN2C(=O)CCn2ccnc2)n1 (stereo not drawn)
  pIC50: < 4.00

## CC(C)C1Nc2ccccc2C(=O)N1CC(=O)Nc1nc2c(s1)CCC2 (stereo not drawn)
  pIC50: < 4.00

## CCOc1ccc2[nH]c(=O)c(CN3CCC(O)CC3)cc2c1
  pIC50: < 4.00

## Cn1cnc2c1CCN(Cc1csc(-c3ccsc3)n1)C2
  pIC50: < 4.00

## Cc1nc(C)n(CC2CN(Cc3cccc4ccccc34)CCO2)n1 (stereo not drawn)
  pIC50: < 4.00

## Cc1cc(C)n(-c2ccc3nnc(C)n3n2)n1
  pIC50: < 4.00

## COCCn1cnc(-c2cc(C(=O)NC(C)C)c3ccccn23)c1
  pIC50: < 4.00

## CN(C)C(=O)CN1CCC2(CC1)CC(=O)c1ccc3ccccc3c1O2
  pIC50: < 4.00

## c1ccc(CCCN2CCCC(Nc3cnc4ccccc4n3)C2)cc1 (stereo not drawn)
  pIC50: < 4.00

## Cc1cccc2c1NC1(CCOCC1)NC2=O
  pIC50: < 4.00

## O=C(CO)N1CCC(CCc2ccnc(Nc3cnccn3)c2)CC1
  pIC50: < 4.00

## N[C@H]1CN(C(=O)c2ccccc2OCCc2ccccc2)C[C@@H]1C1CC1
  pIC50: < 4.00

## CCn1cnnc1CNC(=O)N1CCN(Cc2ccco2)CC1
  pIC50: < 4.00

## O=C(c1c2c(NCC3CC3)ncnc2n2ccccc12)N1CCCC1
  pIC50: < 4.00

## O=C(c1c2c(NCC3CC3)ncnc2n2ccccc12)N1CCOCC1
  pIC50: < 4.00

## c1cncc(CN2CCC(c3ccc4c(c3)OCO4)CC2)c1
  pIC50: < 4.00

## CC(Nc1ncnc2c1NC(=O)CN2)c1ccccn1 (stereo not drawn)
  pIC50: < 4.00

## CCOC(=O)C1(Cc2cccc(OC)c2)CCN(Cc2ncc[nH]2)CC1
  pIC50: < 4.00

## Cc1sc2c(C3CCCNC3)nc(Nc3cccc(F)c3)n2c1C (stereo not drawn)
  pIC50: < 4.00

## O=C(NC1CCCC1)c1cnn2c(-c3ccco3)ccnc12
  pIC50: < 4.00

## Cc1cnn(CC2CN(Cc3nc4ccccc4o3)CCO2)c1 (stereo not drawn)
  pIC50: < 4.00

## COc1ccc(S(N)(=O)=O)cc1C(=O)N(C)Cc1cc(C)on1
  pIC50: < 4.00

## CNc1cnc(CC2COCCN(Cc3ccccc3)C2)cn1 (stereo not drawn)
  pIC50: < 4.00

## Cc1nc(-c2nc(C(=O)N3CCOCC3)c3ccccn23)cn1C(C)C
  pIC50: < 4.00

## CCOc1ccc(Cl)c(C(=O)N(C)C)n1
  pIC50: < 4.00

## CC(=O)N1CCC(c2cncc(N3CCOCC3)n2)CC1
  pIC50: < 4.00

## Cc1ncc2c(n1)CN(CC(=O)Nc1ccc(Cl)cn1)CC2
  pIC50: < 4.00

## CC(c1cccnc1)N(C)Cc1cc2cc3c(cc2[nH]c1=O)OCO3 (stereo not drawn)
  pIC50: < 4.00

## O=C1CN(c2cc(-c3ccccc3F)nc3ccnn23)CCCN1
  pIC50: < 4.00

## c1ccc(CCCN2CCOC(Cn3cccn3)C2)cc1 (stereo not drawn)
  pIC50: < 4.00

## CN(CC(=O)N1CCC(COc2ccccc2)CC1)c1cnccn1
  pIC50: < 4.00

## Cn1ccc2c(-c3cc(N4CCOCC4)ncn3)ccnc21
  pIC50: < 4.00

## Cn1cc(CN2CCCN(C(=O)c3cn4ccccc4n3)CC2)cn1
  pIC50: < 4.00

## CN(C)c1ncc(C2Nc3cc(Cl)ccc3C3=NCCCN32)cn1 (stereo not drawn)
  pIC50: < 4.00

## Cc1ncc2c(n1)CN(Cc1nc(Cc3ccccc3)no1)CC2
  pIC50: < 4.00

## Cc1cc(-c2cc(-c3cc(CC(=O)O)cs3)nc(N)c2C#N)oc1C
  pIC50: < 4.00

## CC(C)N(CCC#N)C(=O)c1cnc(-c2ccc3c(c2)OCO3)s1
  pIC50: < 4.00

## CC(C)c1nnc2n1CCN(C(=O)Cc1csc(C(C)(C)C)n1)C2
  pIC50: < 4.00

## CS(=O)(=O)NC1CCCN(C(=O)c2cccnc2)C1 (stereo not drawn)
  pIC50: < 4.00

## Cc1nc(N2CCCC2)ccc1NCc1ccccn1
  pIC50: < 4.00

## N#Cc1ccnc(NCc2cc3n(n2)CCCN(C(=O)C2CCC2)C3)c1
  pIC50: < 4.00

## Cc1nc(NCC2CC2)nc2c1COCC21CCN(C(=O)C(C)(C)C)C1 (stereo not drawn)
  pIC50: < 4.00

## O=C(c1cc(-c2ccco2)nc2c(Cl)cccc12)N1CCS(=O)(=O)CC1
  pIC50: < 4.00

## COc1ccc(-c2nc(CN3CCc4cncnc4C3)no2)cc1
  pIC50: < 4.00

## CC(C)c1ncc2c(n1)CN(CC(=O)Nc1ccc(Cl)cn1)CC2
  pIC50: < 4.00

## O=C(c1cnn2c(-c3ccco3)ccnc12)N1CCCCCC1
  pIC50: < 4.00

## CC(=O)N1CCC(CCc2ccnc(NC(=O)c3ccccn3)c2)CC1
  pIC50: < 4.00

## CC(=O)N(Cc1ncc(C)o1)C1CCN(Cc2cc(C)on2)C1 (stereo not drawn)
  pIC50: < 4.00

## COc1ccccc1CNc1ncnc2c1NC(=O)CN2
  pIC50: < 4.00

## Cc1cc(C)n(-c2cncc(NCCNC(=O)C(C)(C)C)n2)n1
  pIC50: < 4.00

## Cc1cccc(-c2cc(-c3c(C)nn(CCO)c3C)c(C#N)c(N)n2)c1
  pIC50: < 4.00

## CCCn1[nH]cc/c1=N\C(=O)CN1CCc2c(nc(C3CC3)n2C)C1
  pIC50: < 4.00

## c1cnnc(N2CCCC(NCc3nnc(-c4ccco4)o3)C2)c1 (stereo not drawn)
  pIC50: < 4.00

## Cc1cnn(CC2CN(Cc3nc4ccccc4c(=O)[nH]3)CCO2)c1 (stereo not drawn)
  pIC50: < 4.00

## CCNc1ccnc(-c2ccnc3c2ccn3C)n1
  pIC50: < 4.00

## CC(C)Oc1ccc(C(=O)N2CCC(Nc3cccnn3)CC2)cn1
  pIC50: < 4.00

## Cn1cnc2ccc(NC(=O)CC3CCN(S(C)(=O)=O)CC3)cc21
  pIC50: < 4.00

## N#Cc1ccc(F)c(CN2CCNC(=O)C2c2cccs2)c1 (stereo not drawn)
  pIC50: < 4.00

## O=C(NCc1nc2cc(F)ccc2[nH]1)c1ccc[nH]1
  pIC50: < 4.00

## COCCNCc1cc2c(C)cc(C)cc2n2c(=O)n(C)nc12
  pIC50: < 4.00

## Cc1ccc(-c2cc(-c3c(C)nn(CCO)c3C)c(C#N)c(N)n2)cc1
  pIC50: < 4.00

## Cc1nc(CN(C)C2CCN(Cc3ccc4c(c3)CCC4)C2)no1 (stereo not drawn)
  pIC50: < 4.00

## CNC(=O)c1cc(C)ccc1NCc1cn2cc(C)ccc2n1
  pIC50: < 4.00

## CCCn1nc2c(cc1=O)CN(CC(=O)N(C)c1nccs1)CC2
  pIC50: < 4.00

## CN(C)CCC1CN(C(=O)c2cccc3c2OCC3)CCO1 (stereo not drawn)
  pIC50: < 4.00

## Cn1c(N)c2c(=O)n(C)c(-c3ccc(Cl)cc3Cl)cc2c(C#N)c1=O
  pIC50: < 4.00

## CCOC(=O)Cn1nnnc1-c1ccccc1
  pIC50: < 4.00

## Cc1c(-c2cccs2)nn2c(O)c3c(nc12)CN(C(=O)C1CC1)C3
  pIC50: < 4.00

## Cc1ccc(C2(O)CCN(C(=O)CCn3ccc(=O)[nH]c3=O)CC2)nc1
  pIC50: < 4.00

## Cn1ccc(-c2cc(C(=O)N3CCCCC3)c3ccccn23)n1
  pIC50: < 4.00

## CC(C)[C@H](Nc1cc(-c2ccncc2)nc2ccnn12)C(N)=O
  pIC50: < 4.00

## O=C1NC2(CCN(C(=O)CN3CCOCC3)CC2)Nc2ccc(Cl)cc21
  pIC50: < 4.00

## CC(C)=CCCC1(C)C=Cc2c(cc(C)n(CCC(=O)O)c2=O)O1 (stereo not drawn)
  pIC50: < 4.00

## c1ncc2c(n1)CN(Cc1nc(-c3ccoc3)no1)CC2
  pIC50: < 4.00

## COc1ccc(-c2nnc(CNCCn3cc(C)cn3)o2)cc1
  pIC50: < 4.00

## COCCN1CCc2cc(C(=O)NC(C)C)c(NCC3CC3)nc2CC1
  pIC50: < 4.00

## CCSc1ncc(-c2cc(C3CC3)nc(N)c2C#N)cn1
  pIC50: < 4.00

## CCCOc1ccc(CNc2cncc(-n3cccn3)n2)cc1
  pIC50: < 4.00

## Cn1cnc(-c2nc(C(=O)NCCN3CCCC3)c3ccccn23)c1
  pIC50: < 4.00

## CC(=O)N1CCC(c2cnc(NC3CCOCC3)cn2)CC1
  pIC50: < 4.00

## NC(=O)CCC1CCCN(c2ccc3ccc(F)cc3n2)C1 (stereo not drawn)
  pIC50: < 4.00

## Cc1nc(C2CCCN2CC(=O)Nc2c(C)n[nH]c2C)no1 (stereo not drawn)
  pIC50: < 4.00

## CN(C)c1ccnc(-c2ccnc3c2ccn3C)n1
  pIC50: < 4.00

## Cc1nnc(C2Cc3ccccc3CN2Cc2c(C)noc2C)o1 (stereo not drawn)
  pIC50: < 4.00

## Cc1cc(C)n(CCCNc2ncnc3c2NC(=O)CN3)n1
  pIC50: < 4.00

## Cc1nc(N2CCCC2C(=O)NC(C)(C)CO)nc2ccccc12 (stereo not drawn)
  pIC50: < 4.00

## Fc1ccccc1-c1cc(N2[C@@H]3CC[C@H]2CNC3)n2nccc2n1
  pIC50: < 4.00

## CC(C)Nc1oc(-c2ccc(S(=O)(=O)N(C)C)o2)nc1C#N
  pIC50: < 4.00

## CC(Cn1cccn1)Nc1cnc2ccccc2n1 (stereo not drawn)
  pIC50: < 4.00

## CCCC(C)NC(=O)c1ccc(-c2ccco2)[nH]c1=O (stereo not drawn)
  pIC50: < 4.00

## CNc1cnc(CC2COCCN(Cc3cccc(C)n3)C2)cn1 (stereo not drawn)
  pIC50: < 4.00

## COc1ccc(CNC(=O)Nc2cccnc2N2CCCC2)cc1OC
  pIC50: < 4.00

## CCCNCc1ccc(-c2cc(N)nc3[nH]ccc23)cc1
  pIC50: < 4.00

## Cc1ccc(CN(CC(=O)N2CCOC(C)C2)C2CC2)cc1 (stereo not drawn)
  pIC50: < 4.00

## CN1CCN(c2nc(O)c3c(-c4ccccn4)ccnc3n2)CC1
  pIC50: < 4.00

## COCCNC(=O)c1nc(-c2cn(C)cn2)n2ccccc12
  pIC50: < 4.00

## COc1ccc(C(=O)N(C)Cc2nnc3ccccn23)c(OC)c1OC
  pIC50: < 4.00

## CC(=O)Nc1ccc2nc(CN(C)Cc3noc(C)n3)ccc2c1
  pIC50: < 4.00

## CC(c1ccncn1)N(C)Cc1cc2cc3c(cc2[nH]c1=O)OCO3 (stereo not drawn)
  pIC50: < 4.00
